In patent US10039761B2, “Co-crystals and pharmaceutical compositions comprising the same” (Vertex Pharmaceuticals Incorporated, priority 2013, dated 2018):

Assays:
[1] = system: panel of 60 cancer cell lines; assay: Double combinations in 60 cancer cell line panel (ATPLite, Bliss); type: cell-based; settings: 144 hours
Protocol: The cell-based experiments and assays were performed with either molecule but not always with both. Compounds (1) and (2) were generally very similar in those assays and experiments. Analysis of the combination experiments was performed using two methods: the Bliss Additivity model and the Mixtures Blend method to determine the degree of synergy, additivity, or antagonism. In the Bliss method, a matrix of Bliss scores was generated for each cell line and treatment, and a sum of the Bliss values over the range of combination concentrations tested was calculated. […] Larger average Bliss values indicate greater confidence in reporting synergy, and smaller scores indicate greater confidence in reporting antagonism. In the Mixtures Blend method combinants were added in a range of optimal ratios using design of experiment (DOE) software (DX-8 from STAT-EASE); the cells were irradiated with 2 Gy as required. Synergy was determined using statistical analysis of the data (ANOVA) to indicate linear (additivity) or statistically significant (p<0.1) non-linear (antagonism or synergy) mixes of the combinants. Compound (2) was tested against a panel of 60 cancer cell lines (see Table 16) alone and in combination with a panel of cytotoxic and non-cytotoxic SOC agents. The 60 cancer cell lines represent lines derived from breast cancer, prostate cancer, lung cancer, acute myeloid leukemia (AML), myeloma and other cancers. Cells were removed from liquid nitrogen storage, thawed and expanded in appropriate growth media. Once expanded, cells were seeded in 384-well tissue culture treated plates at 500 cells per well. […] At the end of either 0 hours or 144 hours, cell status was analyzed using ATPLite (Perkin Elmer) to assess the biological response of cells to drug combinations.

HFL1 [2] = assay: Combination with etoposide, viability (Bliss analysis); type: cell-based, human; settings: Compound (2) with etoposide; n = 3
Protocol: (§1) The cell-based experiments and assays were performed with either molecule but not always with both. Compounds (1) and (2) were generally very similar in those assays and experiments. Analysis of the combination experiments was performed using two methods: the Bliss Additivity model and the Mixtures Blend method to determine the degree of synergy, additivity, or antagonism. In the Bliss method, a matrix of Bliss scores was generated for each cell line and treatment, and a sum of the Bliss values over the range of combination concentrations tested was calculated. […] Larger average Bliss values indicate greater confidence in reporting synergy, and smaller scores indicate greater confidence in reporting antagonism. In the Mixtures Blend method combinants were added in a range of optimal ratios using design of experiment (DOE) software (DX-8 from STAT-EASE); the cells were irradiated with 2 Gy as required. Synergy was determined using statistical analysis of the data (ANOVA) to indicate linear (additivity) or statistically significant (p<0.1) non-linear (antagonism or synergy) mixes of the combinants.

HCC-1395 = assay: Doxorubicin combination in triple negative breast cancer cells; type: cell-based; settings: Compound (2) with doxorubicin; plating density 5000; BRCA mutant
Protocol: as §1

HCC-1599 = assay: as above; type: cell-based; settings: Compound (2) with doxorubicin; plating density unknown; BRCA mutant
Protocol: as §1

HCC-1937 = assay: as above; type: cell-based; settings: Compound (2) with doxorubicin, BRCA mutant
Protocol: as §1

MDA-MB-468 = assay: as above; type: cell-based; settings: Compound (2) with doxorubicin, BRCA wild-type
Protocol: as §1

MDA-MB-436 = assay: as above; type: cell-based; settings: Compound (2) with doxorubicin, BRCA mutant
Protocol: as §1

[3] = system: ESO26 (GEJ) cancer cell line; assay: Combination with genotoxic agents, viability (Mixtures analysis); type: cell-based; settings: single agent IC50 on which the mixtures were based
Protocol: as §1

[4] = system: OD26749 primary NSCLC xenograft; assay: OD26749 primary NSCLC xenograft efficacy with whole body IR; type: in vivo, nude mice; settings: for % T/C (Day 29): 2 Gy IR ([…]) q7dx2
HFL1 [5] = assay: Combination with genotoxic agents, cell viability (Mixtures Blend); type: cell-based, human
Protocol: The cell-based experiments and assays were performed with either molecule but not always with both. Compounds (1) and (2) were generally very similar in those assays and experiments. Analysis of the combination experiments was performed using two methods: the Bliss Additivity model and the Mixtures Blend method to determine the degree of synergy, additivity, or antagonism. In the Bliss method, a matrix of Bliss scores was generated for each cell line and treatment, and a sum of the Bliss values over the range of combination concentrations tested was calculated. […] Larger average Bliss values indicate greater confidence in reporting synergy, and smaller scores indicate greater confidence in reporting antagonism. In the Mixtures Blend method combinants were added in a range of optimal ratios using design of experiment (DOE) software (DX-8 from STAT-EASE); the cells were irradiated with 2 Gy as required. Synergy was determined using statistical analysis of the data (ANOVA) to indicate linear (additivity) or statistically significant (p<0.1) non-linear (antagonism or synergy) mixes of the combinants. The following SOC agents were tested in double combinations with Compound (1): etoposide (a topoisomerase inhibitor that induces DSBs), cisplatin (DNA cross-linker), carboplatin (DNA cross-linker), fluorouracil (5-FU, antimetabolite that inhibits thymidylate synthase), paclitaxel (mitotic inhibitor that binds to tubulin), cetuximab (EGFR monoclonal antibody), and radiation. […] These findings were confirmed using the Bliss Additivity model (Table 21). […] While there is not total agreement in the various lines tested, (as detailed in the other sections) the majority agree and the conclusions arrived at are common to each. […] The cancer cell lines in Table 19 indicate: ESO26-gastroesophageal junction cancer, OE19-gastroesophageal junction cancer, […]549-lung cancer, colo205-colon cancer, H460-lung cancer, H2009-lung cancer, FaDu-pharynx cancer, Miapaca2-pancreatic cancer, HFL1-human fetal lung fibroblast.

Miapaca2 cells = assay: Clonogenic survival of irradiated cancer cell lines; type: cell-based; settings: with radiation; surviving fraction 0.1
Source text: (§2) The clonogenic cell survival assay measures the ability of a cell to proliferate indefinitely, thereby retaining its self-renewing ability to form a colony (i.e., clone). This assay has been a mainstay in radiation oncology for decades and was used to determine the effect of Compound (1) on the clonogenicity of a panel of cell lines across multiple tumor types following radiation. […] A DEF greater than 1.5 is generally considered to be clinically meaningful; therefore, by these standards, Compound (1) would be characterized as a strong radio-enhancing agent.

FaDu cells = assay: as above; type: cell-based
Source text: as §2

Structure (SMILES): [2H]c1nc(C)nc([2H])c1-c1cc(NC[C@@H](C)c2cccc3c(C(=O)NC)ccnc23)ncn1 [Compound (2), (S)-N-methyl-8-(1-((2′-methyl-4′,6′-dideutero-[4,5′-bipyrimidin]-6-yl)amino)propan-2-yl)quinoline-4-carboxamide]
- Bliss analysis, combination effect ([1]; in combination with bleomycin): strong synergy (greater than 10 indicates strong synergy)
- Bliss analysis, combination effect ([1]; in combination with doxorubicin): strong synergy (greater than 10 indicates strong synergy)
- Bliss analysis, combination effect ([1]; in combination with etoposide): strong synergy (greater than 10 indicates strong synergy)
- Average Bliss score (HFL1 [2]): 8.7 ± 5.6 (n = 3)
- Average Bliss score (HCC-1395): 11.1
- Average Bliss score (HCC-1599): 14.3
- Average Bliss score (HCC-1937; plating density 5000): 16.6
- Average Bliss score (HCC-1937; plating density 20000): 15.6
- Average Bliss score (MDA-MB-468; plating density 5000): 23.1
- Average Bliss score (MDA-MB-468; plating density 20000): 24.7
- Average Bliss score (MDA-MB-436; plating density 5000): 14.5
- Average Bliss score (MDA-MB-436; plating density 20000): 14.4
- IC50 [3]: 20 µM

Structure (SMILES): CNC(=O)c1ccnc2c([C@H](C)CNc3cc(-c4cnc(C)nc4)ncn3)cccc12 [Compound (1), (S)-N-methyl-8-(1-((2′-methyl-[4,5′-bipyrimidin]-6-yl)amino)propan-2-yl)quinoline-4-carboxamide]
- % T/C (Day 29) ([4]; PO 25 mg/kg bid (0, 4 h)): 25.6%
- % T/C (Day 20) ([4]; PO 100 mg/kg tid (0, 3, 7 h) qdx1, 2 Gy qdx1 (3.25 h) whole body IR, 100 mg/kg): 26%
- % T/C (Day 20) ([4]; PO 100 mg/kg tid (0, 3, 7 h) qdx1, no IR): 101%
- % T/C (Day 29) ([4]; PO 200 mg/kg qd): 6.5%
- Synergy or Antagonism, No Radiation (HFL1 [5]; no agent ticked): Additivity
- Synergy or Antagonism, Plus Radiation (2 Gy) (HFL1 [5]; no agent ticked): No effect
- Synergy or Antagonism, No Radiation (HFL1 [5]; with Cisplatin): Additive
- Synergy or Antagonism, No Radiation (HFL1 [5]; with Cisplatin and 5-FU): Additivity
- Synergy or Antagonism, Plus Radiation (2 Gy) (HFL1 [5]; with Cisplatin and 5-FU): Additivity, Plus
- Synergy or Antagonism, No Radiation (HFL1 [5]; with Etoposide): Synergy
- Synergy or Antagonism, No Radiation (HFL1 [5]; with Paclitaxel): Additivity
- dose enhancement factor (DEF) (Miapaca2 cells): 2.5
- colony formation (FaDu cells; Compound (1) and radiation, as little as 0.5 Gy): completely eliminated colony formation
- dose enhancement factor (DEF) (FaDu cells; with radiation, surviving fraction 0.1): > 8
